From ChEMBL document CHEMBL1201862, “PubChem BioAssay data set” (2004)
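Briefly, cells in 96-well plates were exposed to five compound concentrations for 48 h, and endpoints were estimated by linear interpolation. GI50 is the concentration that inhibits growth by half.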 Active and inactive are the calls of the source. Cut-off read from the data, not from the text of the source: active = GI50 up to about 1.1 µM and inactive = higher.

Columns and labels:
Assay in all cases: NCI anticancer screen, dose series, 48 h
ACHN = system: ACHN
CAKI-1 = system: CAKI-1
COLO 205 = system: COLO 205
DU-145 = system: DU-145
EKVX = system: EKVX
HL-60 = system: HL-60
MDA-MB-231 = system: MDA-MB-231
MDA-N = system: MDA-N
NCI-H23 = system: NCI-H23
NCI-H460 = system: NCI-H460
OVCAR-5 = system: OVCAR-5
OVCAR-8 = system: OVCAR-8
SN12C = system: SN12C
SNB-75 = system: SNB-75
SW-620 = system: SW-620
UACC-257 = system: UACC-257
K562 = system: K562
OVCAR-3 = system: OVCAR-3
SF-268 = system: SF-268
SR = system: SR

| SMILES | GI50 (ACHN) | GI50 (CAKI-1) | GI50 (COLO 205) | GI50 (DU-145) | GI50 (EKVX) | GI50 (HL-60) | GI50 (MDA-MB-231) | GI50 (MDA-N) | GI50 (NCI-H23) | GI50 (NCI-H460) | GI50 (OVCAR-5) | GI50 (OVCAR-8) | GI50 (SN12C) | GI50 (SNB-75) | GI50 (SW-620) | GI50 (UACC-257) | GI50 (K562) | GI50 (OVCAR-3) | GI50 (SF-268) | GI50 (SR) |
| --- | --- | --- | --- | --- | --- | --- | --- | --- | --- | --- | --- | --- | --- | --- | --- | --- | --- | --- | --- | --- |
| Oc1ccc(-c2csc(N/N=C3\NC/C(=C/c4ccc5c(c4)OCO5)S3)n2)cc1O | 17 µM (inactive) | 32.4 µM (inactive) | 29.1 µM (inactive) | 26.7 µM (inactive) | 26.4 µM (inactive) | > 10 µM (inactive) | 55.8 µM (inactive) | 3.4 µM (inactive) | 9.95 µM (inactive) | 31 µM (inactive) | 47.2 µM (inactive) | 29.2 µM (inactive) | 33.5 µM (inactive) | 1.73 µM (inactive) | 35.4 µM (inactive) | 14.6 µM (inactive) |  |  |  |  |
| CC(=O)O[C@H]1C[C@H](O[C@H]2[C@@H](O)C[C@H](O[C@H]3[C@@H](O)C[C@H](O[C@H]4CC[C@@]5(C)[C@H](CC[C@@H]6[C@@H]5CC[C@]5(C)[C@@H](C7=CC(=O)OC7)CC[C@]65O)C4)O[C@@H]3C)O[C@@H]2C)O[C@H](C)[C@H]1O[C@@H]1O[C@H](CO)[C@@H](O)[C@H](O)[C@H]1O | < 0.01 µM (active) | < 0.01 µM (active) | 0.0491 µM (active) | < 0.01 µM (active) | < 0.0148 µM (active) | 0.0149 µM (active) | 0.256 µM (active) | 0.0398 µM (active) | < 0.01 µM (active) | < 0.01 µM (active) | 0.0342 µM (active) | 0.0275 µM (active) | 0.0243 µM (active) | 0.0687 µM (active) | 0.0202 µM (active) | 0.0726 µM (active) | 0.0815 µM (active) | < 0.01 µM (active) | < 0.0125 µM (active) |  |
| COC(=O)/C1=C/c2c([nH]c3ccccc23)/C(C(=O)OC)=C\c2c1[nH]c1ccccc21 [CAULERPIN] | 22.2 µM (inactive) | 37.9 µM (inactive) | > 50 µM (inactive) | 42 µM (inactive) | > 50 µM (inactive) |  | 13.7 µM (inactive) | 15.5 µM (inactive) | 38.1 µM (inactive) | 13.3 µM (inactive) | > 50 µM (inactive) | 26.6 µM (inactive) | 34.4 µM (inactive) |  | 34.4 µM (inactive) | > 50 µM (inactive) |  | 24.8 µM (inactive) | 19.5 µM (inactive) |  |
| Cc1cccc(Nc2cn(COCc3ccccc3)c(=O)[nH]c2=O)c1 | > 100 µM (inactive) | > 100 µM (inactive) | 84.1 µM (inactive) | > 100 µM (inactive) | 15.3 µM (inactive) | > 100 µM (inactive) |  | > 100 µM (inactive) | > 100 µM (inactive) | > 100 µM (inactive) | > 100 µM (inactive) |  | > 100 µM (inactive) |  | > 100 µM (inactive) | > 100 µM (inactive) | > 100 µM (inactive) | > 100 µM (inactive) | 50 µM (inactive) | > 100 µM (inactive) |
| COc1cc(/C=N/n2c(-c3ccccc3)n[nH]c2=O)cc(OC)c1OC | 4.02 µM (inactive) | 1.1 µM (active) |  | 5.77 µM (inactive) | 11.4 µM (inactive) | 0.518 µM (active) | 19.2 µM (inactive) | 0.174 µM (active) | 4.41 µM (inactive) | 0.826 µM (active) | 22.4 µM (inactive) | 4.81 µM (inactive) | 7.67 µM (inactive) | 2.48 µM (inactive) |  | > 100 µM (inactive) | 0.598 µM (active) | 4.63 µM (inactive) | 3.51 µM (inactive) |  |
| COc1ccn(CC(=O)c2cc3ccccc3[nH]2)c(=O)n1 | > 100 µM (inactive) | > 100 µM (inactive) | > 100 µM (inactive) | > 100 µM (inactive) | > 100 µM (inactive) | 39.2 µM (inactive) | > 100 µM (inactive) | > 100 µM (inactive) | > 100 µM (inactive) | > 100 µM (inactive) | > 100 µM (inactive) | > 100 µM (inactive) | > 100 µM (inactive) | > 100 µM (inactive) | > 100 µM (inactive) | > 100 µM (inactive) | > 100 µM (inactive) | > 100 µM (inactive) | > 100 µM (inactive) |  |
| O=Cc1ccc(-c2ccc(-c3ccc(CO)s3)o2)s1 | 28.7 µM (inactive) | 0.186 µM (active) | 12.9 µM (inactive) | 11.5 µM (inactive) | 23.5 µM (inactive) | 3.85 µM (inactive) | 22 µM (inactive) |  | 21.9 µM (inactive) | 0.101 µM (active) |  | 7.28 µM (inactive) | 17.7 µM (inactive) | 20.2 µM (inactive) | 2.22 µM (inactive) | 0.364 µM (active) | 1.43 µM (inactive) | 0.372 µM (active) | 18.6 µM (inactive) | 0.239 µM (active) |
| CCCCCCCCCC[C@@H](O)[C@H]1CC[C@@H]([C@H]2CC[C@H]([C@H](O)CCCCCCCCCC[C@@H]3CC(CC(C)=O)C(=O)O3)O2)O1 (some centres not stated) | 1.17 µM (inactive) | 31 µM (inactive) | 1.52 µM (inactive) | 9.27 µM (inactive) | 0.372 µM (active) |  | 3.64 µM (inactive) |  | 0.00223 µM (active) | 0.147 µM (active) | 48.1 µM (inactive) | 2.34 µM (inactive) | 2.17 µM (inactive) | 1.42 µM (inactive) | 4.4 µM (inactive) | 2.14 µM (inactive) | 1.84 µM (inactive) | 3.75 µM (inactive) | 2.1 µM (inactive) | 0.59 µM (active) |
| O=S(=O)(c1ccc(Br)cc1)n1c2ccc(Br)cc2c2nc3ccccc3nc21 | 39.6 µM (inactive) | > 100 µM (inactive) | > 100 µM (inactive) | > 100 µM (inactive) | > 100 µM (inactive) |  | 50.5 µM (inactive) | > 100 µM (inactive) | > 100 µM (inactive) | > 100 µM (inactive) | > 100 µM (inactive) | 55.5 µM (inactive) | > 100 µM (inactive) | 25.9 µM (inactive) | > 100 µM (inactive) | > 100 µM (inactive) | > 100 µM (inactive) | > 100 µM (inactive) | 85.9 µM (inactive) |  |
| C#CCCCC(=C)C[C@@H]1OC(=O)[C@H](C)[C@@H]1O | > 100 µM (inactive) | > 100 µM (inactive) | > 100 µM (inactive) | > 100 µM (inactive) | > 100 µM (inactive) | > 100 µM (inactive) |  | > 100 µM (inactive) | > 100 µM (inactive) | > 100 µM (inactive) | > 100 µM (inactive) |  | > 100 µM (inactive) | > 100 µM (inactive) | > 100 µM (inactive) |  | > 100 µM (inactive) | > 100 µM (inactive) |  |  |
| C=C1C(=O)O[C@@H]2/C=C(C)/C=C\[C@@H]3O[C@@]3(C)C[C@@H](O)C12 (some centres not stated) | 5.24 µM (inactive) | 8.91 µM (inactive) | 5.2 µM (inactive) | 3.63 µM (inactive) | 3.89 µM (inactive) | 2.54 µM (inactive) | > 10 µM (inactive) | 13.2 µM (inactive) | 13.2 µM (inactive) | 28.9 µM (inactive) | 33.2 µM (inactive) | 17.4 µM (inactive) | 13.4 µM (inactive) | 44.3 µM (inactive) | 4.02 µM (inactive) | 11.8 µM (inactive) | 3.5 µM (inactive) | 14.1 µM (inactive) | 26.4 µM (inactive) |  |
| CN(C)CCn1c(=O)c2ccc3c4c(nn3CCN(C)C)c3cc(O)ccc3n(c1=O)c24 | < 0.0308 µM (active) | 0.0501 µM (active) | 0.0706 µM (active) |  | 0.124 µM (active) | 0.0419 µM (active) | 0.0536 µM (active) | 0.181 µM (active) | 0.0855 µM (active) | < 0.0411 µM (active) | 0.0723 µM (active) | < 0.01 µM (active) | 0.0148 µM (active) | 0.059 µM (active) | 0.0365 µM (active) | 0.308 µM (active) | 0.0459 µM (active) | 0.114 µM (active) |  | < 0.01 µM (active) |
| COC(=O)c1ccccc1/C=C1\Cc2c(C)cc(C)cc2C1=O | > 100 µM (inactive) | > 100 µM (inactive) |  |  | > 100 µM (inactive) | > 100 µM (inactive) | > 100 µM (inactive) | > 100 µM (inactive) |  | > 100 µM (inactive) |  | > 100 µM (inactive) | > 100 µM (inactive) | > 100 µM (inactive) | > 100 µM (inactive) | > 100 µM (inactive) | > 100 µM (inactive) | > 100 µM (inactive) | > 100 µM (inactive) | > 100 µM (inactive) |
| O=C1N=C(Nc2ccccc2Cl)N/C1=C\c1ccc(Cl)cc1Cl | 62.1 µM (inactive) | > 100 µM (inactive) | 47.8 µM (inactive) | 33.3 µM (inactive) | > 100 µM (inactive) | 0.122 µM (active) |  | 8.11 µM (inactive) | > 100 µM (inactive) | 49.2 µM (inactive) | > 100 µM (inactive) | 38.3 µM (inactive) | 25 µM (inactive) | 29.9 µM (inactive) | 46.3 µM (inactive) | 75.3 µM (inactive) | 9.46 µM (inactive) | 66.1 µM (inactive) | > 100 µM (inactive) | 5.3 µM (inactive) |
| Cc1ccc(N/C(SCc2ccccc2)=C(\C(Cl)=C(Cl)Cl)[N+](=O)[O-])c(C)c1 | 43 µM (inactive) | 18.6 µM (inactive) | 17.8 µM (inactive) | 6.31 µM (inactive) | 33.4 µM (inactive) |  | 14.6 µM (inactive) | 22.2 µM (inactive) | 19.5 µM (inactive) | 41.7 µM (inactive) | 19.6 µM (inactive) | 18.5 µM (inactive) | 20.4 µM (inactive) | 29.2 µM (inactive) | 15.6 µM (inactive) | 43.9 µM (inactive) |  | 8.26 µM (inactive) | 14.3 µM (inactive) |  |
